Laboratory results as given in patent US10532065B2, “Bisphosphonic acid derivative and application for same” (NAGASAKI UNIVERSITY, priority 2014, dated 2020).
“And” between values parts separate entries of the source, which are not always exact repeats. Equal entries are not always repeated. Where two headings read alike, the source gives them in different places.

Tests used:
Format in all cases: cell-based
EJ-1 cells / γδ T cells = assay: TNF-α production from γδ T cells stimulated by compound-pretreated EJ-1 cells (indirect antitumor action, ELISA); conditions: for EC50: EJ-1 pretreated 4 hr with compound, 16 hr with γδ T cells, TNF-α ELISA, read-out: TNF-α50; for TNF-α production induction activity (in words): EJ-1 pretreated with compound, γδ T cells
Protocol: The indirect antitumor action of bisphosphonic acid POM esters and bisphosphonic acids was studied by comparison using EJ-1. In principle, EJ-1 is treated with a compound, washed, and reacted with γδ T cells, and the cytotoxic ability is studied by comparison, by quantifying TNF-α produced by γδ T cells during cell disordering. TNF-α is generally used as an index of γδ T cell induction ability and/or proliferative capacity, and γδ T cells are considered to be induced and/or proliferated in proportion to the TNF-α amount (Journal of Immunology, 154, 5986-5994 (1995)). Since the produced TNF-α is what is called a tumor necrosis factor, it is considered to have an action to lower proliferation of cancer cells or induce cell death.
Thereto was added a solution (500 μl) of compounds 3, 5, 6, 7, which are bisphosphonic acid POM ester derivatives, obtained by serially diluting 10 mM stock solution 10-fold from 20 μM, or a solution (500 μl) of bisphosphonic acid 10, 12, 13, 14 compound obtained by serially diluting 10-fold from 200 μM, and the cells were suspended well. These conical tubes were stood at 37° C. for 4 hr, and the cells were washed 3 times with 5 ml of culture medium. To these cells was added 500 μl of medium, and the cells were suspended well. […] The cell culture medium was suspended well, and the plate was centrifuged at 1,700 rpm, 4° C. for 2 min and the culture supernatant (150 μl) was taken and placed in another round-bottomed 96 well plate. The plate was frozen at −80° C. overnight, left standing at room temperature for 1 hr, stirred well and 100 μl thereof was subjected to ELISA of TNF-α. The content of TNF-α was calculated from the analytical curve of TNF-α. These were performed in triplicate, and a graph showing bisphosphonic acid POM ester derivative and the corresponding bisphosphonic acid as one pair was plotted. […] The results of bisphosphonic acid POM ester derivative are shown by -●-, and the results of bisphosphonic acid are shown by -◯-.
The indirect antitumor action of bisphosphonic acid POM esters and bisphosphonic acids was quantitatively studied by comparison using EJ-1. […] Thereto was added a solution (500 μl) of a bisphosphonic acid POM ester derivative obtained by serially diluting 10 mM stock solution 10-fold from 20 μM, or a bisphosphonic acid solution (500 μl) serially diluted 10-fold from 200 μM was added, and the cells were suspended well. These conical tubes were stood at 37° C. for 4 hr, and the cells were washed 3 times with 5 ml of culture medium. To these cells was added 500 μl of medium, and the cells were suspended well. […] The cell culture medium was suspended well, and the plate was centrifuged at 1,700 rpm, 4° C. for 2 min and the culture supernatant (150 μl) was taken and placed in another round-bottomed 96 well plate. The plate was frozen at −80° C. overnight, left standing at room temperature for 1 hr, stirred well and 100 μl thereof was subjected to ELISA of TNF-α. The content of TNF-α was calculated from the analytical curve of TNF-α. These were performed in triplicate, and a half of the concentration of compounds 1-7, which are bisphosphonic acid POM ester derivatives, and compounds 8-14, which are bisphosphonic acids, necessary for producing the maximum amount of TNF-α from γδ T cells was calculated as TNF-α50, and summarized in Table 6.
Therefore, the TNF-α50 value of various bisphosphonic acid POM ester derivatives was calculated. […] Thereto was added a solution (500 μl) of compounds 1-7 and 15-39, which are bisphosphonic acid POM ester derivatives, and compound 42, which is other bisphosphonic acid ester derivative, obtained by serially diluting 10 mM stock solution 10-fold from 20 μM, and the cells were suspended well. These conical tubes were stood at 37° C. for 4 hr, and the cells were washed 3 times with 5 ml of culture medium. To these cells was added 500 μl of medium, and the cells were suspended well. […]

EJ-1 cells = assay: EJ-1 cell growth inhibition (direct antitumor action, CellTiterGlo); conditions: for IC50: EJ-1 (bladder cancer) growth inhibition, 4 days culture; for direct antitumor activity (in words): EJ-1 growth inhibition
Protocol: (§1) The direct antitumor action of bisphosphonic acid POM ester and bisphosphonic acid was studied by comparison using U937.
(§2) The direct antitumor action of bisphosphonic acid POM ester derivatives and bisphosphonic acids was studied by comparison using EJ-1. It was performed in the same manner as in Experimental Example 1 except that EJ-1 was used as the cell to be used. For recovery of the cells, a conventional EDTA trypsin treatment was performed.
as §2, with “POM esters” for “POM ester derivatives”, “Example 2” for “Example 1”
(§3) The direct antitumor action of various bisphosphonic acid POM esters was studied by comparison using U937 and EJ-1. The measurement was performed according to Experimental Example 2 and Experimental Example 4.

U937 cells = assay: U937 cell growth inhibition (direct antitumor action, CellTiterGlo); conditions: for IC50: U937 cell growth inhibition, 4 days culture; for direct antitumor activity (in words): U937 growth inhibition
Protocol: as §1, §3

Row | Compound | EC50 (EJ-1 cells / γδ T cells) [µM] | IC50 (EJ-1 cells) | IC50 (U937 cells) [µM] | direct antitumor activity (in words) (EJ-1 cells) | direct antitumor activity (in words) (U937 cells) | TNF-α production induction activity (in words) (EJ-1 cells / γδ T cells) | EC50 (EJ-1 cells / γδ T cells; EJ1) [µM] | IC50 (EJ-1 cells; EJ1, 96 h) [µM] | IC50 (U937 cells; Homo sapiens, U-937, 96 h) [µM]
1 | CN(CC(P(=O)(OCOC(=O)C(C)(C)C)OCOC(=O)C(C)(C)C)P(=O)(OCOC(=O)C(C)(C)C)OCOC(=O)C(C)(C)C)c1ccccn1 [Compound 1, tetrakispivaloyloxymethyl 2-(methylpyridin-2-ylamino)ethylidene-1,1-bisphosphonate] | 0.55 | 11 µM | 5.3 | – | – | – | – | – | –
2 | CC(C)(C)C(=O)OCOP(=O)(OCOC(=O)C(C)(C)C)C(CNc1ncccc1Br)P(=O)(OCOC(=O)C(C)(C)C)OCOC(=O)C(C)(C)C [Compound 2, tetrakispivaloyloxymethyl 2-(3-bromopyridin-2-ylamino)ethylidene-1,1-bisphosphonate] | 4.5 | 2.3 µM | 0.68 | high activity | high activity | – | – | – | –
3 | Cc1ccc(NCC(P(=O)(OCOC(=O)C(C)(C)C)OCOC(=O)C(C)(C)C)P(=O)(OCOC(=O)C(C)(C)C)OCOC(=O)C(C)(C)C)nc1 [Compound 3, tetrakispivaloyloxymethyl 2-(5-methylpyridin-2-ylamino)ethylidene-1,1-bisphosphonate] | 0.48 | 5.4 µM | 5.6 | – | – | – | – | – | –
4 | CC(C)(C)C(=O)OCOP(=O)(OCOC(=O)C(C)(C)C)C(CNc1ccc(Br)cn1)P(=O)(OCOC(=O)C(C)(C)C)OCOC(=O)C(C)(C)C [Compound 4, tetrakispivaloyloxymethyl 2-(5-bromopyridin-2-ylamino)ethylidene-1,1-bisphosphonate] | 0.7 | 7.8 µM | 3.6 | – | – | – | – | – | –
5 | CC(C)(C)C(=O)OCOP(=O)(OCOC(=O)C(C)(C)C)C(CNc1ccc(F)cn1)P(=O)(OCOC(=O)C(C)(C)C)OCOC(=O)C(C)(C)C [Compound 5, tetrakispivaloyloxymethyl 2-(5-fluoropyridin-2-ylamino)ethylidene-1,1-bisphosphonate] | 0.069 | 4.8 µM and 5.7 µM | 5.3 | – | – | high activity | – | – | –
6 | CC(C)(C)C(=O)OCOP(=O)(OCOC(=O)C(C)(C)C)C(CNc1ncccn1)P(=O)(OCOC(=O)C(C)(C)C)OCOC(=O)C(C)(C)C [Compound 6, tetrakispivaloyloxymethyl 2-(pyrimidin-2-ylamino)ethylidene-1,1-bisphosphonate] | 0.08 | 0.09 µM | 2.4 | high activity | high activity | high activity | – | – | –
7 | Cc1cccnc1NCC(P(=O)(O)O)P(=O)(O)O [Compound 8, 2-(3-methylpyridin-2-ylamino)ethylidene-1,1-bisphosphonic Acid, reference compound] | – | – | – | – | – | – | > 100 | 13 | 980
8 | O=P(O)(O)C(CNc1ncccc1Br)P(=O)(O)O [Compound 9, 2-(3-bromopyridin-2-ylamino)ethylidene-1,1-bisphosphonic Acid, reference compound] | – | – | – | – | – | – | > 100 | 970 | 1100
9 | Cc1ccc(NCC(P(=O)(O)O)P(=O)(O)O)nc1 [Compound 10, 2-(methylpyridin-2-ylamino)ethylidene-1,1-bisphosphonic Acid, reference compound] | – | – | – | – | – | – | 48 | 7.9 | 29
10 | O=P(O)(O)C(CNc1ccc(Br)cn1)P(=O)(O)O [Compound 11, 2-(5-bromopyridin-2-ylamino)ethylidene-1,1-bisphosphonic Acid, reference compound] | – | – | – | – | – | – | > 100 | 290 | 200
11 | O=P(O)(O)C(CNc1ccc(F)cn1)P(=O)(O)O [Compound 12, 2-(5-fluoropyridin-2-ylamino)ethylidene-1,1-bisphosphonic Acid, reference compound] | – | – | – | – | – | – | 49 | 260 | 68
12 | O=P(O)(O)C(CNc1ncccn1)P(=O)(O)O [Compound 13, 2-(pyrimidin-2-ylamino)ethylidene-1,1-bisphosphonic Acid, reference compound] | – | – | – | – | – | – | 48 | 23 | 150
13 | CC(C)(C)C(=O)OCOP(=O)(OCOC(=O)C(C)(C)C)C(CNc1ncccc1OCc1ccccc1)P(=O)(OCOC(=O)C(C)(C)C)OCOC(=O)C(C)(C)C [Compound 15, tetrakispivaloyloxymethyl 2-(3-benzyloxypyridin-2-ylamino)ethylidene-1,1-bisphosphonate] | > 10 | 16 µM | 7.1 | – | – | – | – | – | –
14 | Cc1ccnc(NCC(P(=O)(OCOC(=O)C(C)(C)C)OCOC(=O)C(C)(C)C)P(=O)(OCOC(=O)C(C)(C)C)OCOC(=O)C(C)(C)C)c1 [Compound 16, tetrakispivaloyloxymethyl 2-(4-methylpyridin-2-ylamino)ethylidene-1,1-bisphosphonate] | 5.1 | 15 µM | 6.8 | – | – | – | – | – | –
15 | CC(C)(C)C(=O)OCOP(=O)(OCOC(=O)C(C)(C)C)C(CNc1ccc(C(F)(F)F)cn1)P(=O)(OCOC(=O)C(C)(C)C)OCOC(=O)C(C)(C)C [Compound 17, tetrakispivaloyloxymethyl 2-(5-trifluoromethylpyridin-2-ylamino)ethylidene-1,1-bisphosphonate] | > 10 | 4.3 µM | 2.6 | – | – | – | – | – | –
16 | CC(C)(C)C(=O)OCOP(=O)(OCOC(=O)C(C)(C)C)C(CNc1ccc(Cl)cn1)P(=O)(OCOC(=O)C(C)(C)C)OCOC(=O)C(C)(C)C [Compound 18, tetrakispivaloyloxymethyl 2-(5-chloropyridin-2-ylamino)ethylidene-1,1-bisphosphonate] | 0.38 | 4.8 µM | 3.3 | – | – | – | – | – | –
17 | CC(C)(C)C(=O)OCOP(=O)(OCOC(=O)C(C)(C)C)C(CNc1ccc(-c2ccccc2)cn1)P(=O)(OCOC(=O)C(C)(C)C)OCOC(=O)C(C)(C)C [Compound 19, tetrakispivaloyloxymethyl 2-(5-phenylpyridin-2-ylamino)ethylidene-1,1-bisphosphonate] | > 10 | 9.5 µM | 6.7 | – | – | – | – | – | –
18 | Cc1cccc(NCC(P(=O)(OCOC(=O)C(C)(C)C)OCOC(=O)C(C)(C)C)P(=O)(OCOC(=O)C(C)(C)C)OCOC(=O)C(C)(C)C)n1 [Compound 20, tetrakispivaloyloxymethyl 2-(6-methylpyridin-2-ylamino)ethylidene-1,1-bisphosphonate] | 3.7 | 16 µM | 6.9 | – | – | – | – | – | –
19 | CC(C)(C)C(=O)OCOP(=O)(OCOC(=O)C(C)(C)C)C(CNc1cccc(Br)n1)P(=O)(OCOC(=O)C(C)(C)C)OCOC(=O)C(C)(C)C [Compound 21, tetrakispivaloyloxymethyl 2-(6-bromopyridin-2-ylamino)ethylidene-1,1-bisphosphonate] | > 10 | 9 µM | 6.1 | – | – | – | – | – | –
